Assay results from US11178869B2, “Microbiocidal quinoline (thio)carboxamide derivatives” (priority 2017, dated 2021).
Read-outs that look alike come from different tables or passages of the source.

Columns and labels:
[1] = tested on: Botryotinia fuckeliana (Botrytis cinerea); assay: Botryotinia fuckeliana (Botrytis cinerea) / liquid culture (gray mould); type: cell-based; conditions: 72 h, 200 ppm, compared to untreated control, growth inhibition photometrically 3-4 days after application, read-out: disease control
Fusarium culmorum [2] = assay: microbe, parasite or virus in culture; type: cell-based; conditions: read-out: disease control
[3] = tested on: Glomerella lagenarium (Colletotrichum lagenarium); assay: Glomerella lagenarium (Colletotrichum lagenarium) / liquid culture (anthracnose); type: cell-based; conditions: Colletotrichum orbiculare, read-out: disease control
[4] = tested on: Magnaporthe grisea (Pyricularia oryzae); assay: microbe, parasite or virus in culture; type: cell-based; conditions: read-out: control of Magnaporthe grisea
Fusarium culmorum [5] = assay: whole plant or invertebrate; type: in vivo, Fusarium culmorum on wheat spikelets cv. Monsun; conditions: in Triticum aestivum, 144 h, read-out: control of Fusarium culmorum
[6] = tested on: Monographella nivalis (Microdochium nivale); assay: Monographella nivalis (Microdochium nivale) / liquid culture (foot rot cereals); type: cell-based; conditions: 200 ppm, compared to untreated control, growth inhibition photometrically 4-5 days after application, read-out: disease control
[7] = 200 ppm, compared to untreated control, growth inhibition photometrically 3-4 days after application

C#CCC(C)(CC(C)C)NC(=O)c1cnc2c(F)cccc2c1 (centres unmarked) [Compound E-2, 8-fluoro-N-(1-isobutyl-1-methyl-but-3-ynyl)quinoline-3-carboxamide]
≥ 80%: inhibition of growth at 200 ppm [1] | inhibition of growth at 200 ppm (Fusarium culmorum [2]) | inhibition of growth at 200 ppm [3, 7]

CCC(C)(C#Cc1ccccc1C)NC(=O)c1cc2cccc(F)c2nc1C (centres unmarked) [Compound F-14, N-[1-ethyl-1-methyl-3-(o-tolyl)prop-2-ynyl]-8-fluoro-2-methyl-quinoline-3-carboxamide]
≥ 80%: inhibition of growth at 200 ppm [1] | inhibition of growth at 200 ppm (Fusarium culmorum [2]) | inhibition of growth at 200 ppm [3, 7] | inhibition of growth at 20 ppm [4] | pest or weed control at 200 ppm (Fusarium culmorum [5])

CCC(C)(C#Cc1ccccc1)NC(=O)c1cc2cccc(F)c2nc1C (centres unmarked) [Compound F-16, N-(1-ethyl-1-methyl-3-phenyl-prop-2-ynyl)-8-fluoro-2-methyl-quinoline-3-carboxamide]
≥ 80%: inhibition of growth at 200 ppm [1] | inhibition of growth at 200 ppm (Fusarium culmorum [2]) | inhibition of growth at 200 ppm [3, 7] | inhibition of growth at 200 ppm [6] | inhibition of growth at 20 ppm [4] | pest or weed control at 200 ppm (Fusarium culmorum [5])

CC(C)(C#Cc1ccccc1F)NC(=O)c1cnc2c(F)cccc2c1 [Compound F-18, 8-fluoro-N-[3-(2-fluorophenyl)-1,1-dimethyl-prop-2-ynyl]quinoline-3-carboxamide]
≥ 80%: inhibition of growth at 200 ppm [1] | inhibition of growth at 200 ppm (Fusarium culmorum [2]) | inhibition of growth at 200 ppm [3, 7] | inhibition of growth at 200 ppm [6]

Cc1ccc(C#N)cc1C#CC(C)(C)NC(=O)c1cnc2c(F)cccc2c1 [Compound F-19, N-[3-(5-cyano-2-methyl-phenyl)-1,1-dimethyl-prop-2-ynyl]-8-fluoro-quinoline-3-carboxamide]
≥ 80%: inhibition of growth at 200 ppm [1] | inhibition of growth at 200 ppm (Fusarium culmorum [2]) | inhibition of growth at 200 ppm [3, 7] | inhibition of growth at 200 ppm [6]

CC(C)(C#Cc1ccc(F)c(F)c1)NC(=O)c1cnc2c(F)cccc2c1 [Compound F-20, N-[3-(3,4-difluorophenyl)-1,1-dimethyl-prop-2-ynyl]-8-fluoro-quinoline-3-carboxamide]
≥ 80%: inhibition of growth at 200 ppm [1] | inhibition of growth at 200 ppm (Fusarium culmorum [2]) | inhibition of growth at 200 ppm [3, 7] | inhibition of growth at 200 ppm [6]

Cc1ccc(C)c(C#CC(C)(C)NC(=O)c2cnc3c(F)cccc3c2)c1 [Compound F-22, N-[3-(2,5-dimethylphenyl)-1,1-dimethyl-prop-2-ynyl]-8-fluoro-quinoline-3-carboxamide]
≥ 80%: inhibition of growth at 200 ppm [1] | inhibition of growth at 200 ppm (Fusarium culmorum [2]) | inhibition of growth at 200 ppm [3, 7]

Cc1cccc(C#CC(C)(C)NC(=O)c2cnc3c(F)cccc3c2)c1C [Compound F-26, N-[3-(2,3-dimethylphenyl)-1,1-dimethyl-prop-2-ynyl]-8-fluoro-quinoline-3-carboxamide]
≥ 80%: inhibition of growth at 200 ppm [1] | inhibition of growth at 200 ppm (Fusarium culmorum [2]) | inhibition of growth at 200 ppm [3, 7] | inhibition of growth at 200 ppm [6]

CC(C)(C#Cc1ccc(F)cc1)NC(=O)c1cnc2c(F)cccc2c1 [Compound F-27, 8-fluoro-N-[3-(4-fluorophenyl)-1,1-dimethyl-prop-2-ynyl]quinoline-3-carboxamide]
≥ 80%: inhibition of growth at 200 ppm [1] | inhibition of growth at 200 ppm (Fusarium culmorum [2]) | inhibition of growth at 200 ppm [3, 7] | inhibition of growth at 200 ppm [6]

COc1ccc(C#CC(C)(C)NC(=O)c2cnc3c(F)cccc3c2)cc1 [Compound F-28, 8-fluoro-N-[3-(4-methoxyphenyl)-1,1-dimethyl-prop-2-ynyl]quinoline-3-carboxamide]
≥ 80%: inhibition of growth at 200 ppm [1] | inhibition of growth at 200 ppm (Fusarium culmorum [2]) | inhibition of growth at 200 ppm [3, 7] | inhibition of growth at 200 ppm [6] | pest or weed control at 200 ppm (Fusarium culmorum [5])

Cc1cc(C)cc(C#CC(C)(C)NC(=O)c2cnc3c(F)cccc3c2)c1 [Compound F-30, N-[3-(3,5-dimethylphenyl)-1,1-dimethyl-prop-2-ynyl]-8-fluoro-quinoline-3-carboxamide]
≥ 80%: inhibition of growth at 200 ppm [1] | inhibition of growth at 200 ppm (Fusarium culmorum [2]) | inhibition of growth at 200 ppm [3, 7] | inhibition of growth at 200 ppm [6]

Cc1ccc(C#CC(C)(C)NC(=O)c2cnc3c(F)cccc3c2)cc1C [Compound F-32, N-[3-(3,4-dimethylphenyl)-1,1-dimethyl-prop-2-ynyl]-8-fluoro-quinoline-3-carboxamide]
≥ 80%: inhibition of growth at 200 ppm [1] | inhibition of growth at 200 ppm (Fusarium culmorum [2]) | inhibition of growth at 200 ppm [3, 7] | inhibition of growth at 200 ppm [6]

Cc1ccc(C#CC(C)(C)NC(=O)c2cnc3c(F)cccc3c2)c(C)c1 [Compound F-33, N-[3-(2,4-dimethylphenyl)-1,1-dimethyl-prop-2-ynyl]-8-fluoro-quinoline-3-carboxamide]
≥ 80%: inhibition of growth at 200 ppm [1] | inhibition of growth at 200 ppm (Fusarium culmorum [2]) | inhibition of growth at 200 ppm [3, 7] | inhibition of growth at 200 ppm [6]

Cc1cc(C#N)ccc1C#CC(C)(C)NC(=O)c1cnc2c(F)cccc2c1 [Compound F-34, N-[3-(4-cyano-2-methyl-phenyl)-1,1-dimethyl-prop-2-ynyl]-8-fluoro-quinoline-3-carboxamide]
≥ 80%: inhibition of growth at 200 ppm [1] | inhibition of growth at 200 ppm (Fusarium culmorum [2]) | inhibition of growth at 200 ppm [6]

CC(C)(C#Cc1cccc(C#N)c1)NC(=O)c1cnc2c(F)cccc2c1 [Compound F-36, N-[3-(3-cyanophenyl)-1,1-dimethyl-prop-2-ynyl]-8-fluoro-quinoline-3-carboxamide]
≥ 80%: inhibition of growth at 200 ppm [1] | inhibition of growth at 200 ppm (Fusarium culmorum [2]) | inhibition of growth at 200 ppm [6]

COc1ccccc1C#CC(C)(C)NC(=O)c1cnc2c(F)cccc2c1 [Compound F-37, 8-fluoro-N-[3-(2-methoxyphenyl)-1,1-dimethyl-prop-2-ynyl]quinoline-3-carboxamide]
≥ 80%: inhibition of growth at 200 ppm [1] | inhibition of growth at 200 ppm (Fusarium culmorum [2]) | inhibition of growth at 200 ppm [3, 7] | inhibition of growth at 200 ppm [6]

COc1cc(C#CC(C)(C)NC(=O)c2cnc3c(F)cccc3c2)ccc1Cl [Compound F-38, N-[3-(4-chloro-3-methoxy-phenyl)-1,1-dimethyl-prop-2-ynyl]-8-fluoro-quinoline-3-carboxamide]
≥ 80%: inhibition of growth at 200 ppm [1] | inhibition of growth at 200 ppm (Fusarium culmorum [2]) | inhibition of growth at 200 ppm [3, 7] | inhibition of growth at 200 ppm [6]

Cc1cccc(C#CC(C)(C)NC(=O)c2cnc3c(F)cccc3c2)c1 [Compound F-39, N-[1,1-dimethyl-3-(m-tolyl)prop-2-ynyl]-8-fluoro-quinoline-3-carboxamide]
≥ 80%: inhibition of growth at 200 ppm [1] | inhibition of growth at 200 ppm (Fusarium culmorum [2]) | inhibition of growth at 200 ppm [3, 7] | inhibition of growth at 200 ppm [6] | pest or weed control at 200 ppm (Fusarium culmorum [5])

CC(C)(C#Cc1cc(F)cc(F)c1)NC(=O)c1cnc2c(F)cccc2c1 [Compound F-40, N-[3-(3,5-difluorophenyl)-1,1-dimethyl-prop-2-ynyl]-8-fluoro-quinoline-3-carboxamide]
≥ 80%: inhibition of growth at 200 ppm [1] | inhibition of growth at 200 ppm (Fusarium culmorum [2]) | inhibition of growth at 200 ppm [3, 7] | inhibition of growth at 200 ppm [6] | pest or weed control at 200 ppm (Fusarium culmorum [5])

CC(C)(C#Cc1ccccc1C#N)NC(=O)c1cnc2c(F)cccc2c1 [Compound F-41, N-[3-(2-cyanophenyl)-1,1-dimethyl-prop-2-ynyl]-8-fluoro-quinoline-3-carboxamide]
≥ 80%: inhibition of growth at 200 ppm [1] | inhibition of growth at 200 ppm (Fusarium culmorum [2]) | inhibition of growth at 200 ppm [3, 7] | inhibition of growth at 200 ppm [6]

CC(C)(C#Cc1ccc(C(F)(F)F)cc1)NC(=O)c1cnc2c(F)cccc2c1 [Compound F-42, N-[1,1-dimethyl-3-[4-(trifluoromethyl)phenyl]prop-2-ynyl]-8-fluoro-quinoline-3-carboxamide]
≥ 80%: inhibition of growth at 200 ppm [1] | inhibition of growth at 200 ppm (Fusarium culmorum [2]) | inhibition of growth at 200 ppm [3, 7] | inhibition of growth at 200 ppm [6]

COc1ccc(C(F)(F)F)cc1C#CC(C)(C)NC(=O)c1cnc2c(F)cccc2c1 [Compound F-43, 8-fluoro-N-[3-[2-methoxy-5-(trifluoromethyl)phenyl]-1,1-dimethyl-prop-2-ynyl]quinoline-3-carboxamide]
≥ 80%: inhibition of growth at 200 ppm [1] | inhibition of growth at 200 ppm (Fusarium culmorum [2]) | inhibition of growth at 200 ppm [3, 7]

Cc1ccc(F)c(C#CC(C)(C)NC(=O)c2cnc3c(F)cccc3c2)c1 [Compound F-45, 8-fluoro-N-[3-(2-fluoro-5-methyl-phenyl)-1,1-dimethyl-prop-2-ynyl]quinoline-3-carboxamide]
≥ 80%: inhibition of growth at 200 ppm [1] | inhibition of growth at 200 ppm (Fusarium culmorum [2]) | inhibition of growth at 200 ppm [3, 7] | inhibition of growth at 200 ppm [6] | pest or weed control at 200 ppm (Fusarium culmorum [5])

CC#CC(C)(C)NC(=O)c1cnc2c(F)cccc2c1 [Compound F-53, N-(1,1-dimethylbut-2-ynyl)-8-fluoro-quinoline-3-carboxamide]
≥ 80%: inhibition of growth at 200 ppm (Fusarium culmorum [2]) | inhibition of growth at 200 ppm [3]

C[C@@](CC#CC1CC1)(CC(F)(F)F)NC(=O)c1cnc2c(F)cccc2c1 [Compound G-1, N-[(1R)-4-cyclopropyl-1-methyl-1-(2,2,2-trifluoroethyl)but-3-ynyl]-8-fluoro-quinoline-3-carboxamide]
≥ 80%: inhibition of growth at 200 ppm [1] | inhibition of growth at 200 ppm (Fusarium culmorum [2]) | inhibition of growth at 200 ppm [6]

C[C@](CC#CC1CC1)(CC(F)(F)F)NC(=O)c1cnc2c(F)cccc2c1 [Compound G-2, N-[(1S)-4-cyclopropyl-1-methyl-1-(2,2,2-trifluoroethyl)but-3-ynyl]-8-fluoro-quinoline-3-carboxamide]
≥ 80%: inhibition of growth at 200 ppm [1] | inhibition of growth at 200 ppm (Fusarium culmorum [2])
